Results as given in the supplement of paper PMC10307832.

Compound: NC(=O)c1ccc(N(C(N)=O)c2c(F)cccc2F)nc1-c1ccc(F)cc1F [VX-702] + O=C(c1cc(Cc2n[nH]c(=O)c3ccccc23)ccc1F)N1CCN(C(=O)C2CC2)CC1 [Olaparib] (partner 8 µM)
Assay: relative viability (nuclei count vs DMSO), 5 days (fraction); higher = more cells survive
Conditions: first compound 0.6325 µM
Method in brief: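 Lung cancer cell lines, seeded in 1536-well plates, were treated the following day by pin tool with a single drug or with five library-drug doses (not always all listed) in √10 steps on top of a fixed anchor-drug dose. Cells were fixed and nuclei stained in one step after 5 days, and nuclei were counted. Relative viability is the nuclei count for treated wells divided by that for vehicle wells, reported as medians of duplicate plates.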

| Cell Line | relative viability |
| --- | --- |
| EMC-BAC-2 | 0.482 |
| NCI-H2170 | 0.631 |
| NCI-H1703 | 0.315 |
| UMC-11 | 0.368 |
| NCI-H650 | 0.452 |
| LCLC-103H | 0.795 |
| NCI-H596 | 0.898 |
| HCC-827 | 0.59 |
| COR-L 105 | 0.768 |
| NCI-H1299 | 0.937 |
| NCI-H2126 | 0.945 |
| A549 | 0.374 |
| NCI-H647 | 0.427 |
| LOU-NH91 | 0.911 |
| HCC-78 | 0.83 |
| HCC-44 | 0.989 |
| NCI-H1651 | 0.183 |
| NCI-H1755 | 0.799 |
| HOP-62 | 0.553 |
| PC-14 | 0.338 |
| NCI-H1650 | 0.806 |
| ChaGo-K-1 | 0.433 |
| A-427 | 0.725 |
| NCI-H1355 | 0.785 |

| Cell Line | relative viability |
| --- | --- |
| NCI-H1648 | 0.689 |
| NCI-H1792 | 0.356 |
| HCC-15 | 0.692 |
| LU99A | 0.255 |
| EKVX | 0.906 |
| Calu-6 | 0.65 |
| COR-L23 | 0.379 |
| NCI-H1437 | 0.643 |
| RERF-LC-KJ | 0.921 |
| NCI-H1734 | 0.51 |
| BEN | 0.991 |
| NCI-H460 | 0.548 |
| H3255 | 0.558 |
| SK-LU-1 | 0.526 |
| NCI-H1793 | 0.858 |
| NCI-H23 | 0.329 |
| SW 1573 | 0.438 |
| NCI-H838 | 0.827 |
| NCI-H2342 | 0.475 |
| EPLC-272H | 0.799 |
| NCI-H3122 | 0.66 |
| NCI-H1915 | 0.238 |
| NCI-H727 | 0.72 |
| NCI-H1975 | 0.809 |

| Cell Line | relative viability |
| --- | --- |
| LK-2 | 0.555 |
| HCC-366 | 0.353 |
| NCI-H2087 | 0.669 |
| LCLC-97TM1 | 0.502 |
| NCI-H661 | 0.756 |
| NCI-H2405 | 0.897 |
| NCI-H1993 | 1.06 |
| PC-3 [JPC-3] | 1.16 |
| NCI-H2009 | 0.739 |
| NCI-H2347 | 0.638 |
| NCI-H520 | 0.379 |
| EBC-1 | 0.653 |
| LXF-289 | 1.06 |
| NCI-H358 | 0.561 |
| LC-2-ad | 0.799 |
| 201T | 0.894 |
| NCI-H1666 | 0.826 |
| NCI-H2023 | 0.552 |
| NCI-H322M | 0.806 |
| HARA | 0.779 |
| NCI-H1395 | 0.502 |
| SK-MES-1 | 0.622 |

Same assay, conditions: first compound 2 µM

| Cell Line | relative viability |
| --- | --- |
| ABC-1 | 0.746 |
| CAL-12T | 0.697 |
| NCI-H1944 | 0.403 |
| NCI-H2085 | 0.833 |
| IA-LM | 0.937 |
| NCI-H2228 | 0.864 |
| NCI-H441 | 0.661 |
| NCI-H522 | 0.619 |
| EMC-BAC-2 | 0.441 |
| NCI-H2170 | 0.676 |
| NCI-H1703 | 0.47 |
| UMC-11 | 0.269 |
| NCI-H650 | 0.456 |
| LCLC-103H | 0.817 |
| NCI-H596 | 0.685 |
| HCC-827 | 0.562 |
| COR-L 105 | 0.859 |
| NCI-H1299 | 0.862 |
| NCI-H2126 | 0.98 |
| A549 | 0.114 |
| NCI-H647 | 0.744 |
| LOU-NH91 | 0.881 |
| HCC-78 | 0.867 |
| HCC-44 | 0.963 |
| NCI-H1651 | 0.151 |
| NCI-H1755 | 0.876 |

| Cell Line | relative viability |
| --- | --- |
| HOP-62 | 0.65 |
| PC-14 | 0.282 |
| NCI-H1650 | 1.16 |
| ChaGo-K-1 | 0.352 |
| A-427 | 0.943 |
| NCI-H1355 | 0.876 |
| NCI-H1648 | 0.781 |
| NCI-H1792 | 0.444 |
| HCC-15 | 0.719 |
| LU99A | 0.228 |
| EKVX | 0.974 |
| Calu-6 | 0.64 |
| COR-L23 | 0.386 |
| NCI-H1437 | 0.691 |
| RERF-LC-KJ | 0.901 |
| NCI-H1734 | 0.523 |
| BEN | 1.06 |
| NCI-H460 | 0.26 |
| H3255 | 0.594 |
| SK-LU-1 | 0.567 |
| NCI-H1793 | 1.01 |
| NCI-H23 | 0.402 |
| SW 1573 | 0.448 |
| NCI-H838 | 0.926 |
| NCI-H2342 | 0.466 |
| EPLC-272H | 1.07 |

| Cell Line | relative viability |
| --- | --- |
| NCI-H3122 | 0.555 |
| NCI-H1915 | 0.241 |
| NCI-H727 | 0.555 |
| NCI-H1975 | 1.1 |
| LK-2 | 0.751 |
| HCC-366 | 0.269 |
| NCI-H2087 | 0.709 |
| LCLC-97TM1 | 0.69 |
| NCI-H661 | 0.798 |
| NCI-H2405 | 0.901 |
| NCI-H1993 | 1.05 |
| PC-3 [JPC-3] | 1.31 |
| NCI-H2009 | 0.842 |
| NCI-H2347 | 0.456 |
| NCI-H520 | 0.289 |
| EBC-1 | 0.745 |
| LXF-289 | 1.1 |
| NCI-H358 | 0.634 |
| LC-2-ad | 0.776 |
| 201T | 0.898 |
| NCI-H1666 | 0.733 |
| NCI-H2023 | 0.637 |
| NCI-H322M | 0.929 |
| HARA | 0.964 |
| NCI-H1395 | 0.448 |
| SK-MES-1 | 0.696 |
